We go through four compounds from patent US6891062B2, “Pharmaceutical composition for treatment of diseases associated with decrease in bone mass” (Ono Pharmaceutical Co., Ltd., priority 1999, dated 2005).

The test system of this test is Beagle/CSK strain dogs. Briefly: Promoting action on bone formation: determination of bone area of femur. In kind it is in vivo, dog. The following applies: for bone area: dog femur, 4 weeks. An excerpt:
Beagle/CSK strain dogs of 6-month old were used (n=3 to 6 per group). Into a physical saline solution, each (11 α, 15 α, 13E)-9-oxo-11,15-dihydroxy-16-(3-methoxymethylphenyl)-17,18,19,20-tetranor-5-t hiaprost-13-enoic acid methyl ester (methyl ester of a compound of the formula (IE)) α-cyclodextrin clathrate (containing rate of an active ingredient in α-cyclodextrin clathrate form is 25% w/w), (11 α, 15 α, 13E)-9-oxo-11,15-dihydroxy-16-(3-methoxymethylphenyl)-17,18,19,20-tetranor-3,7-dithiaprost-13-enoic acid (a compound of the formula (IF)), (9β, 11 α, 15 α, 5Z, 13E)-9-chloro-11,15-dihydroxy-16-(3-ethoxymethylphenyl)-17,18,19,20-tetranorpro st-5,13-dienoic acid (a compound of the formula (IG)), (11 α, 15 α, 13E)-9-oxo-11,15-dihydroxy-16-(3-methoxymethylphenyl)-17,18,19,20-tetranorpro st-13-enoic acid (methyl ester of a compound of the formula (IH)), and (11 α, 15 α, 5Z, 13E)-9-oxo-11,15-dihydroxy-16-(3-ethoxymethylphenyl)-17,18,19,20-tetranorprost-5,13-dienoic acid (a compound of the formula (IJ)) was dissolved, and administered continuously to each animal at the effective doses of 2, 5, 10 and 25 μg/kg/day, for 24 hours per day during 4 weeks. Each test solution was administered into femoral vein through holding-catheter at the rate of 0.2 ml/kg/hour. An equal volume of physical saline solution was administered into an animal of the control group. After termination of administration, each animal was sacrificed to carry out autopsy. The separated femur was fixed with 10% buffered formalin solution and then was cut into a round slice with the width of 10 mm vertically to longitudinal axis at the 25 mm central side from trochlea sulcus. Pictures of bone surface near side of epiphysis were taken with camera connected to the computer from the constant distance, and then the resulted digital image was analyzed to determine bone area.

The mark [1] stands for this setting: 5 μg/kg/day continuous into femoral vein.

Under setting [1], `CCOCc1cccc(C[C@H](O)/C=C/[C@H]2[C@H](O)CC(=O)[C@@H]2C/C=C\CCCC(=O)O)c1` [Invention compound (IJ), (11 α, 15 α, 5Z, 13E)-9-oxo-11,15-dihydroxy-16-(3-ethoxymethylphenyl)-17,18,19,20-tetranorprost-5,13-dienoic acid] had a bone area of 193.23 ± 11.32 mm^2. For the compound `COCc1cccc(C[C@H](O)/C=C/[C@H]2[C@H](O)CC(=O)[C@@H]2SCCCSCC(=O)O)c1` [Invention compound (IF), (11 α, 15 α, 13E)-9-oxo-11,15-dihydroxy-16-(3-methoxymethylphenyl)-17,18,19,20-tetranor-3,7-dithiaprost-13-enoic acid], the bone area under setting [1] is on record as 365.29 ± 73.63 mm^2. Still for that read-out and setting: to `COCc1cccc(C[C@H](O)/C=C/[C@H]2[C@H](O)CC(=O)[C@@H]2CCCCCCC(=O)O)c1` [Invention compound (IH), (11 α, 15 α, 13E)-9-oxo-11,15-dihydroxy-16-(3-methoxymethylphenyl)-17,18,19,20-tetranorpro st-13-enoic acid] belongs 362.99 ± 89.56 mm^2. In turn, `CCOCc1cccc(C[C@H](O)/C=C/[C@@H]2[C@@H](C/C=C\CCCC(=O)O)[C@H](Cl)C[C@H]2O)c1` [Invention compound (IG), (9β, 11 α, 15 α, 5Z, 13E)-9-chloro-11,15-dihydroxy-16-(3-ethoxymethylphenyl)-17,18,19,20-tetranorpro st-5,13-dienoic acid] displayed a bone area (10 μg/kg/day continuous into femoral vein) of 140.10 ± 28.08 mm^2 and a bone area (25 μg/kg/day continuous into femoral vein) of 289.38 ± 120.50 mm^2. Besides, for the setting “dog, 25 μg/kg/day”, the “increase of bone area compared with Untreated Group” value amounted to 4.2 fold.
